Results as given in US20240076297A1, “ADENOSINE A2A AND A2B RECEPTOR DUAL ANTAGONISTS FOR IMMUNO-ONCOLOGY” (Merck Sharp & Dohme LLC, priority 2020, published 2024).

Key:
[1] = molecular target: human A2A adenosine receptor (Homo sapiens (Human), UniProt P29274); assay: A2A binding affinity using radioligand binding, Method (A); settings: Method (A): filtration radioligand binding, [3H] SCH58261, membranes expressing human A2A
From the text: (§1) Method (A) describes the procedure used to measure A2A binding affinity using radioligand binding. Method (B) describes the procedure used to measure A2A binding affinity using SPA technology. The method used to measure A2B binding affinity is also described below. The method used to determine the A2A IC50 value reported for each compound in the table is indicated next to the reported value. The A2B IC50 value measured using the A2B binding affinity assay is shown in the table next to the compound under the corresponding A2A value.
The A2A receptor affinity binding assay measured the amount of binding of a tritiated ligand with high affinity for the A2A adenosine receptor to membranes made from HEK293 or CHO cells recombinantly expressing the human A2A adenosine receptor, in the presence of varying concentrations of a compound of the invention. The data were generated using either filtration binding or a homogenous scintillation proximity assay (SPA).
Method (A): Measurement of A2A Binding Affinity Using Radioligand Binding
148 μL (5 μg/mL) membranes (Perkin Elmer, Cat. No. RBHA2aM400UA) and 2 μL compounds of the invention to be tested (test compound) were transferred to individual wells of a 96-well polypropylene assay plate and incubated for 15 to 30 min at room temperature. [^3H] SCH58261 ((7-(2-phenylethyl)-5-amino-2-(2-furyl)-pyrazolo-[4,3-e]-1,2,4-triazolo[1,5-c]pyrimidine)) was diluted in assay buffer (50 mM Tris pH 7.4, 10 mM MgCl2, 0.005% Tween20) to a concentration of 4 nM and 50 μL transferred to each well of the assay plate. To define total and non-specific binding, wells containing 1% DMSO and 1 μM ZM241385 (Tocris Bioscience, Cat. No. 1036) respectively, were also included. The assay plate was incubated at room temperature for 60 min with agitation. Using a FilterMate Harvester® (Perkin Elmer), the contents of the assay plate were filtered through a UniFilter-96® PEI coated plate (Perkin Elmer Cat. No. 6005274 or 6005277). Filtering was achieved by aspirating the contents of the assay plate for 5 sec, then washing and aspirating the contents three times with ice-cooled wash buffer (50 mM Tris-HCl pH 7.4, 150 mM NaCl) and allowing the vacuum manifold to dry the plate for 30 sec. The filter plate was incubated for at least 1 h at 55° C. and allowed to dry. The bottom of the filter plate was sealed with backing tape. 40 μL Ultima Gold™ (Perkin Elmer, Cat. No. 6013329) was added to each well of the filter plate and the top of the plate was sealed with TopSeal-A PLUS® clear plate seal (Perkin Elmer, Cat. No. 6050185). The plate was incubated for at least 20 min, and then the amount of radioactivity remaining in each well was determined using a TopCount® (Perkin Elmer) scintillation counter. After normalization to total and non-specific binding, the percent effect at each compound concentration was calculated. The plot of percent effect versus the log of compound concentration was analyzed electronically using a 4-parameter logistic fit based on the Levenberg-Marquardt algorithm to generate IC50 values.

[2] = molecular target: human A2B adenosine receptor (Homo sapiens (Human), UniProt P29275); assay: A2B binding affinity, radioligand filtration binding assay; settings: value given with marker (A); HEK293 membranes expressing human A2B, tritiated proprietary antagonist
From the text: as §1
Measurement of A2B Binding Affinity
The reported affinity of the compounds of the invention for the human A2B adenosine receptor was determined experimentally using a radioligand filtration binding assay. This assay measures the amount of binding of a tritiated proprietary A2B receptor antagonist, in the presence and absence of a compound of the invention, to membranes made from HEK293 cells recombinantly expressing the human A2B adenosine receptor (Perkin Elmer, Cat. No. ES-013-C).
148 μL (135 μg/mL) membranes and 2 μL test compounds were transferred to individual wells of a 96-well polypropylene assay plate and incubated for 15 to 30 min at room temperature with agitation. Tritiated radioligand was diluted to a concentration of 14 nM in assay buffer (phosphate buffered saline without Magnesium and Calcium, pH 7.4; GE Healthcare Life Sciences, Cat. No. SH30256.01) and then 50 μL of the solution were transferred to each well of the assay plate. To define total and non-specific binding, wells containing 1% DMSO and 20 μM N-ethylcarboxamidoadenosine (Tocris Bioscience, Cat. No. 1691) respectively, were also included. The wells of the assay plate were incubated at room temperature for 60 min with agitation, then filtered using a FilterMate Harvester® (Perkin Elmer) or similar equipment through a UniFilter-96@ PEI coated plate (Perkin Elmer Cat. No. 6005274 or 6005277). Filtering was achieved by aspirating the contents of the assay plate for 5 sec, then washing and aspirating the contents three times with ice-cooled wash buffer (assay buffer supplemented with 0.0025% Brij58) and allowing the vacuum manifold to dry the plate for 30 sec. The filter plate was incubated for at least 1 h at 55° C. and allowed to dry. The bottom of the filter plate was then sealed with backing tape. 40 μL Ultima Gold™ (Perkin Elmer, Cat. No. 6013329) was added to each well of the filter plate and the top of the plate was sealed with TopSeal-A PLUS® clear plate seal (Perkin Elmer, Cat. No. 6050185). The plates were then incubated for at least 20 min, and then the amount of radioactivity remaining in each well was determined using a TopCount® (Perkin Elmer) scintillation counter. After normalization to total and non-specific binding, the percent effect at each compound concentration was calculated. The plot of percent effect versus the log of compound concentration was analyzed electronically using a 4-parameter logistic fit based on the Levenberg-Marquardt algorithm to generate IC50 values.

human A2B adenosine receptor, sequence (P29275 whole entry): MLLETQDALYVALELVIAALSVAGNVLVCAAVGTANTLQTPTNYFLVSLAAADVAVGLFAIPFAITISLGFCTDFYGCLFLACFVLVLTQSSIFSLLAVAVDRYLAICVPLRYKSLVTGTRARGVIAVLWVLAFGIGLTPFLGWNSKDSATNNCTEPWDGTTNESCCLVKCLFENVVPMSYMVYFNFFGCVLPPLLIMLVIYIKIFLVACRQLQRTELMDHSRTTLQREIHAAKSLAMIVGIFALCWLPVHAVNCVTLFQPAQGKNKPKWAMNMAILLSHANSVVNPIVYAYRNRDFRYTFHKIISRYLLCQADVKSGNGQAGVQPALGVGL
human A2A adenosine receptor, sequence (P29274 whole entry): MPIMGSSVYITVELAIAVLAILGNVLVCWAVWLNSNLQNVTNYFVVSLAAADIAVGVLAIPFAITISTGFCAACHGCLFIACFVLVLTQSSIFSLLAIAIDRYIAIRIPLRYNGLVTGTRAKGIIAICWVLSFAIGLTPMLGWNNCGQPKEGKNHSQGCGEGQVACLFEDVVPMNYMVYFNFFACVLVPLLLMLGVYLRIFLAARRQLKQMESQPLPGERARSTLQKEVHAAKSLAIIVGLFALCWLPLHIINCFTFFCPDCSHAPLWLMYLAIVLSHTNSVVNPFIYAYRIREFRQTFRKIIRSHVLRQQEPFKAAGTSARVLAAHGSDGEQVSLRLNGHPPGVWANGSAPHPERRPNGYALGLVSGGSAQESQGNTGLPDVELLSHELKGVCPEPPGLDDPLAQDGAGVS

IC50 [1] [nM] | IC50 [2] [nM] | SMILES
0.1 | 0.6 | COc1cccc2c1nc(N)n1nc(COCc3ccc(C(O)(C(F)(F)F)C(F)(F)F)cc3)nc21 [Example 4.1, 2-(4-(((5-amino-7-methoxy-[1,2,4]triazolo[1,5-c]quinazolin-2-yl)methoxy)methyl)phenyl)-1,1,1,3,3,3-hexafluoropropan-2-ol]
0.2 | 9.1 | COc1cc(F)cc2c1nc(N)n1nc(COCc3ccc(C(C)(C)O)cc3)nc21 [Example 4.14, 2-(4-(((5-amino-9-fluoro-7-methoxy-[1,2,4]triazolo[1,5-c]quinazolin-2-yl)methoxy)methyl)phenyl)propan-2-ol]
0.2 | 10 | COc1cccc2c1nc(N)n1nc(COCc3ccc(C(C)(C)O)cc3)nc21 [Example 4.15, 2-(4-(((5-amino-7-methoxy-[1,2,4]triazolo[1,5-c]quinazolin-2-yl)methoxy)methyl)phenyl)propan-2-ol]
0.3 | 0.9 | COc1cc(F)cc2c1nc(N)n1nc(COCc3ccc(C(O)(C(F)(F)F)C(F)(F)F)cc3)nc21 [Example 4.16, 2-(4-(((5-amino-9-fluoro-7-methoxy-[1,2,4]triazolo[1,5-c]quinazolin-2-yl)methoxy)methyl)phenyl)-1,1,1,3,3,3-hexafluoropropan-2-ol]

Second part, the molecule before the results:

SMILES | IC50 [1] [nM] | IC50 [2] [nM]
COc1cccc2c1nc(N)n1nc(CCC3CCc4c(nnn4C(C)C)C3)nc21 (single isomer, unassigned) [Example 5.2B, (R or S)-2-(2-(1-isopropyl-4,5,6,7-tetrahydro-1H-benzo[d][1,2,3]triazol-5-yl)ethyl)-7-methoxy-[1,2,4]triazolo[1,5-c]quinazolin-5-amine] | 0.8 | 12
COc1cccc2c1nc(N)n1nc(CCC3CCc4c(nnn4C4CC(F)(F)C4)C3)nc21 (single isomer, unassigned) [Example 5.3B, (R or S)-2-(2-(1-(3,3-difluorocyclobutyl)-4,5,6,7-tetrahydro-1H-benzo[d][1,2,3]triazol-5-yl)ethyl)-7-methoxy-[1,2,4]triazolo-[1,5-c]quinazolin-5-amine] | 0.9 | 3.1
COc1cc(F)cc2c1nc(N)n1nc(CCC3CCc4nn(C(C)C)cc4C3)nc21 (single isomer, unassigned) [Example 5.4A, (S or R)-9-fluoro-2-(2-(2-isopropyl-4,5,6,7-tetrahydro-2H-indazol-5-yl)ethyl)-7-methoxy-[1,2,4]triazolo[1,5-c]quinazolin-5-amine] | 1.9 | 9.4
COc1cc(F)cc2c1nc(N)n1nc(CC3CC3c3ccc(C(C)(C)N)cc3)nc21 (single isomer, unassigned) [Example 8.4B, 2-(((1R,2S or 1S,2R)-2-(4-(2-aminopropan-2-yl)phenyl)-cyclopropyl)methyl)-9-fluoro-7-methoxy-[1,2,4]triazolo-[1,5-c]quinazolin-5-amine] | 3.1 | 139
COc1cccc2c1nc(N)n1nc(CC3CC3c3ccc(C(C)(C)N)cc3)nc21 (single isomer, unassigned) [Example 8.5B, 2-(((IR,2S or 1S,2R)-2-(4-(2-aminopropan-2-yl)phenyl)cyclopropyl)methyl)-7-methoxy-[1,2,4]triazolo[1,5-c]quinazolin-5-amine] | 1.3 | 3.3
COc1cc2nc(N)n3nc(CC(C)S(C)(=O)=O)nc3c2cc1F (single isomer, unassigned) [Example 13.2A, (S or R)-9-fluoro-8-methoxy-2-(2-(methylsulfonyl)propyl)-[1,2,4]triazolo[1,5-c]quinazolin-5-amine] | 0.7 | 61.4
COc1cc2nc(N)n3nc(CC(C)S(C)(=O)=O)nc3c2cc1F (single isomer, unassigned) [Example 13.2B, (R or S)-9-fluoro-8-methoxy-2-(2-(methylsulfonyl)propyl)-[1,2,4]triazolo[1,5-c]quinazolin-5-amine] | 8.1 | 1050
